Test results published in publication PMC4262413, “Importance of Tryptophan in Transforming an Amphipathic Peptide into a Pseudomonas aeruginosa-Targeted Antimicrobial Peptide” (PLoS ONE, 2014).
Values after ≈ are worked out from the molar mass of the structure shown. Where two headings read alike, the source gives them in different places. Residues, ends and D or L forms follow the SMILES beside them.

How the values were obtained:
Assay in all cases: microbe, parasite or virus in culture
[1] = tested on: E. coli 25922; assay type: cell-based, Escherichia coli
Procedure: (§1) Minimal inhibitory concentration (MIC) assays were performed as described previously. Briefly, after incubation overnight in Mueller-Hinton (MH) broth at 37°C, the bacteria were grown to exponential growth phase and diluted to approximately 1×10^5 CFU/ml. The peptides were dissolved in 0.2% bovine serum albumin (BSA) containing 0.01% (v/v) acetic acid, and they were then added to each well of a 96-well plates at a final concentration ranging from 0.25 to 128 µM. Each well contained a total volume of 100 µL (50 µL of inoculums and 50 µL of peptide-containing solution). The MICs were determined as the lowest concentration of peptide that prevented visible turbidity by visual inspection after incubation at 37°C for 16–18 h. Independent experiments were carried out at least three times. Uninoculated MH broth was used as a negative control and cultures without added peptides served as the positive control. Minimal bactericidal concentration (MBC) assay was performed following MIC assay. At the end of MIC assay 10 µL aliquots of the medium were taken from peptide-containing wells with no visible bacterial growth. These are plated on MH agar, incubated for 18 h to allow colony growth. The MBC was defined as the lowest peptide concentration resulting in no bacterial growth in the media. Each assay was performed at least three times.

[2] = tested on: S. typhimurium 7731; assay type: cell-based, Salmonella typhimurium
Procedure: as §1

[3] = tested on: S. aureus 29213; assay type: cell-based, Staphylococcus aureus
Procedure: as §1

[4] = tested on: S. epidermidis 12228; assay type: cell-based, Staphyfococcus epidermidis
Procedure: as §1

[5] = tested on: P. aeruginosa 27853; assay type: cell-based, Pseudomonas aeruginosa
Procedure: as §1

[6] = tested on: P. auruginosa 10419; assay type: cell-based, Pseudomonas aeruginosa
Procedure: as §1

[7] = tested on: P. auruginosa 21625; assay type: cell-based, Pseudomonas aeruginosa
Procedure: as §1

[8] = tested on: P. auruginosa 21630; assay type: cell-based, Pseudomonas aeruginosa
Procedure: as §1

[9] = tested on: P. auruginosa LC; assay type: cell-based, Pseudomonas aeruginosa
Procedure: as §1

[10] = tested on: P. auruginosa LCCE (ceftazidime-resistant strain)
Procedure: as §1
(§2) The antimicrobial activity of the RI16 and mutant peptides against Gram-negative and Gram-positive bacteria were determined.

[11] = tested on: P. auruginosa LCCI (ciprofloxacin-resistant strain)
Procedure: as §1, §2

[12] = tested on: P. auruginosa LCGE (gentamincin-resistant strain)
Procedure: as §1, §2

`NCC[C@H](O)C(=O)N[C@@H]1C[C@H](N)[C@@H](O[C@H]2O[C@H](CN)[C@@H](O)[C@H](O)[C@H]2O)[C@H](O)[C@H]1O[C@H]1O[C@H](CO)[C@@H](O)[C@H](N)[C@H]1O` [Amikacin, reference compound] showed an MIC ([1]; Escherichia coli, 25922) of 0.125 µM (≈ 0.0732 µg/mL), an MIC ([2]; Salmonella enterica, S. typhimurium 7731, MH broth, ~1×10^5 CFU/ml, 37°C, 16–18 h, visible turbidity, at least three independent experiments) of 0.5 µM (≈ 0.293 µg/mL) and an MIC ([3]; Staphylococcus aureus, S. aureus 29213, MH broth, ~1×10^5 CFU/ml, 37°C, 16–18 h, visible turbidity, at least three independent experiments) of 1 µM (≈ 0.586 µg/mL). For the same molecule, the MIC ([4]; Staphylococcus epidermidis, 12228) was 0.125 µM (≈ 0.0732 µg/mL), the MIC ([5]; Pseudomonas aeruginosa, P. auruginosa 27853, MH broth, ~1×10^5 CFU/ml, 37°C, 16–18 h, visible turbidity, at least three independent experiments) was 1 µM (≈ 0.586 µg/mL) and the MIC ([6]; Pseudomonas aeruginosa, P. auruginosa 10419, MH broth, ~1×10^5 CFU/ml, 37°C, 16–18 h, visible turbidity, at least three independent experiments) was 2 µM (≈ 1.17 µg/mL). The MIC ([7]; Pseudomonas aeruginosa, P. auruginosa 21625, MH broth, ~1×10^5 CFU/ml, 37°C, 16–18 h, visible turbidity, at least three independent experiments) was 16 µM (≈ 9.37 µg/mL), the MIC ([8]; Pseudomonas aeruginosa, P. auruginosa 21630, MH broth, ~1×10^5 CFU/ml, 37°C, 16–18 h, visible turbidity, at least three independent experiments) was 1 µM (≈ 0.586 µg/mL) and the MIC ([9]; Pseudomonas aeruginosa, P. auruginosa LC, MH broth, ~1×10^5 CFU/ml, 37°C, 16–18 h, visible turbidity, at least three independent experiments) was 0.25 µM (≈ 0.146 µg/mL). For the same molecule, the MIC ([10]; Pseudomonas aeruginosa) was 8 µM (≈ 4.68 µg/mL), the MIC ([11]; Pseudomonas aeruginosa) was 8 µM (≈ 4.68 µg/mL) and the MIC ([12]; Pseudomonas aeruginosa) was > 1280 µM.

Molecule `CC[C@H](C)[C@H](NC(=O)[C@H](CCCCN)NC(=O)[C@H](CCCCN)NC(=O)[C@H](CC(C)C)NC(=O)[C@H](CCCNC(=N)N)NC(=O)[C@H](CCCCN)NC(=O)[C@H](CCCNC(=N)N)NC(=O)[C@@H](NC(=O)[C@H](CCCCN)NC(=O)[C@H](CCCCN)NC(=O)[C@H](CCCNC(=N)N)NC(=O)[C@H](CC(C)C)NC(=O)[C@H](CCCNC(=N)N)NC(=O)[C@H](CCCNC(=N)N)NC(=O)[C@H](Cc1ccccc1)NC(=O)[C@@H](N)CCCNC(=N)N)[C@@H](C)O)C(N)=O` [RI16] (H-RFRRLRKKTRKRLKKI-NH2) has an MIC ([1]; E. coli 25922, MH broth, ~1×10^5 CFU/ml, 37°C, 16–18 h, visible turbidity, at least three independent experiments) of 128 µM (≈ 279 µg/mL), an MIC ([2]; S. typhimurium 7731, MH broth, ~1×10^5 CFU/ml, 37°C, 16–18 h, visible turbidity, at least three independent experiments) of 128 µM (≈ 279 µg/mL) and an MIC ([3]; S. aureus 29213, MH broth, ~1×10^5 CFU/ml, 37°C, 16–18 h, visible turbidity, at least three independent experiments) of 128 µM (≈ 279 µg/mL). It also gave an MIC ([4]; S. epidermidis 12228, MH broth, ~1×10^5 CFU/ml, 37°C, 16–18 h, visible turbidity, at least three independent experiments) of 32 µM (≈ 69.8 µg/mL), an MIC ([5]; P. auruginosa 27853, MH broth, ~1×10^5 CFU/ml, 37°C, 16–18 h, visible turbidity, at least three independent experiments) of 256 µM (≈ 559 µg/mL) and an MIC ([6]; P. auruginosa 10419, MH broth, ~1×10^5 CFU/ml, 37°C, 16–18 h, visible turbidity, at least three independent experiments) of 256 µM (≈ 559 µg/mL). It also gave an MIC ([7]; P. auruginosa 21625, MH broth, ~1×10^5 CFU/ml, 37°C, 16–18 h, visible turbidity, at least three independent experiments) of 256 µM (≈ 559 µg/mL), an MIC ([8]; P. auruginosa 21630, MH broth, ~1×10^5 CFU/ml, 37°C, 16–18 h, visible turbidity, at least three independent experiments) of 256 µM (≈ 559 µg/mL) and an MIC ([9]; P. auruginosa LC, MH broth, ~1×10^5 CFU/ml, 37°C, 16–18 h, visible turbidity, at least three independent experiments) of 32 µM (≈ 69.8 µg/mL). It also gave an MIC ([10]; P. auruginosa LCCE, ceftazidime-resistant strain, MH broth, ~1×10^5 CFU/ml, 37°C, 16–18 h, visible turbidity) of 256 µM (≈ 559 µg/mL), an MIC ([11]; P. auruginosa LCCI, ciprofloxacin-resistant strain, MH broth, ~1×10^5 CFU/ml, 37°C, 16–18 h, visible turbidity) of 256 µM (≈ 559 µg/mL) and an MIC ([12]; P. auruginosa LCGE, gentamincin-resistant strain, MH broth, ~1×10^5 CFU/ml, 37°C, 16–18 h, visible turbidity) of 256 µM (≈ 559 µg/mL).

With `CC[C@H](C)[C@H](NC(=O)[C@H](CCCCN)NC(=O)[C@H](CCCCN)NC(=O)[C@H](CC(C)C)NC(=O)[C@H](CCCNC(=N)N)NC(=O)[C@H](CCCCN)NC(=O)[C@H](CCCNC(=N)N)NC(=O)[C@H](Cc1ccccc1)NC(=O)[C@H](CCCCN)NC(=O)[C@H](CCCCN)NC(=O)[C@H](CCCNC(=N)N)NC(=O)[C@H](CC(C)C)NC(=O)[C@H](CCCNC(=N)N)NC(=O)[C@H](CCCNC(=N)N)NC(=O)[C@H](Cc1ccccc1)NC(=O)[C@@H](N)CCCNC(=N)N)C(N)=O` [T9F] (H-RFRRLRKKFRKRLKKI-NH2) the MIC [1]; 25922 was 64 µM (≈ 143 µg/mL), the MIC [2]; 7731 was 128 µM (≈ 285 µg/mL) and the MIC [3]; 29213 was 128 µM (≈ 285 µg/mL). For the same molecule, the MIC [4]; 12228 was 32 µM (≈ 71.3 µg/mL), the MIC [5]; 27853 was 256 µM (≈ 571 µg/mL) and the MIC [6] was 256 µM (≈ 571 µg/mL). It also gave an MIC [7] of 256 µM (≈ 571 µg/mL), an MIC [8] of 256 µM (≈ 571 µg/mL) and an MIC [9] of 64 µM (≈ 143 µg/mL). It also gave an MIC [10] of 256 µM (≈ 571 µg/mL), an MIC [11] of 256 µM (≈ 571 µg/mL) and an MIC [12] of 256 µM (≈ 571 µg/mL).

With `CC[C@H](C)[C@H](NC(=O)[C@H](CCCCN)NC(=O)[C@H](CCCCN)NC(=O)[C@H](CC(C)C)NC(=O)[C@H](CCCNC(=N)N)NC(=O)[C@H](CCCCN)NC(=O)[C@H](CCCNC(=N)N)NC(=O)[C@@H](NC(=O)[C@H](CCCCN)NC(=O)[C@H](CCCCN)NC(=O)[C@H](CCCNC(=N)N)NC(=O)[C@H](CC(C)C)NC(=O)[C@H](CCCNC(=N)N)NC(=O)[C@H](CCCNC(=N)N)NC(=O)[C@H](Cc1ccccc1)NC(=O)[C@@H](N)CCCNC(=N)N)[C@@H](C)CC)C(N)=O` [T9I] (H-RFRRLRKKIRKRLKKI-NH2) the MIC [1]; 25922 was 128 µM (≈ 281 µg/mL), the MIC [2]; 7731 was 256 µM (≈ 562 µg/mL) and the MIC [3]; 29213 was 256 µM (≈ 562 µg/mL). For the same molecule, the MIC [4]; 12228 was 32 µM (≈ 70.2 µg/mL), the MIC [5]; 27853 was 256 µM (≈ 562 µg/mL) and the MIC [6] was 256 µM (≈ 562 µg/mL). The MIC [7] was 256 µM (≈ 562 µg/mL), the MIC [8] was 256 µM (≈ 562 µg/mL) and the MIC [9] was 64 µM (≈ 140 µg/mL). The MIC [10] was 256 µM (≈ 562 µg/mL), the MIC [11] was 256 µM (≈ 562 µg/mL) and the MIC [12] was 256 µM (≈ 562 µg/mL).

In the case of `CC[C@H](C)[C@H](NC(=O)[C@H](CCCCN)NC(=O)[C@H](CCCCN)NC(=O)[C@H](CC(C)C)NC(=O)[C@H](CCCNC(=N)N)NC(=O)[C@H](CCCCN)NC(=O)[C@H](CCCNC(=N)N)NC(=O)[C@H](CCCCN)NC(=O)[C@H](CCCCN)NC(=O)[C@H](CCCCN)NC(=O)[C@H](CCCNC(=N)N)NC(=O)[C@H](CC(C)C)NC(=O)[C@H](CCCNC(=N)N)NC(=O)[C@H](CCCNC(=N)N)NC(=O)[C@H](Cc1ccccc1)NC(=O)[C@@H](N)CCCNC(=N)N)C(N)=O` [T9K] (H-RFRRLRKKKRKRLKKI-NH2), the MIC [1]; 25922 is reported as 128 µM (≈ 283 µg/mL), the MIC [2]; 7731 is reported as 256 µM (≈ 566 µg/mL) and the MIC [3]; 29213 is reported as 128 µM (≈ 283 µg/mL). It also gave an MIC [4]; 12228 of 128 µM (≈ 283 µg/mL), an MIC [5]; 27853 of 128 µM (≈ 283 µg/mL) and an MIC [6] of 256 µM (≈ 566 µg/mL). It also gave an MIC [7] of 256 µM (≈ 566 µg/mL), an MIC [8] of 256 µM (≈ 566 µg/mL) and an MIC [9] of 256 µM (≈ 566 µg/mL).

`CC(C)(O/N=C(\C(=O)N[C@@H]1C(=O)N2C(C(=O)[O-])=C(C[n+]3ccccc3)CS[C@H]12)c1csc(N)n1)C(=O)O` [ceftazidime, reference compound] was tested, and the MIC ([10]; Pseudomonas aeruginosa) was > 512 µM.

With `O=C(O)c1cn(C2CC2)c2cc(N3CCNCC3)c(F)cc2c1=O` [ciprofloxacin, reference compound] the MIC ([11]; Pseudomonas aeruginosa) was > 512 µM.
